According to patent US10167262B2, “Herbicidal substituted 3-arylpyrazoles” (FMC CORPORATION, priority 2014, dated 2019):

Experiments:
Format in all cases: in vivo
[1] = test system: barnyardgrass (Echinochloa crus-galli); test: Test A pre-/postemergence greenhouse herbicide test, visual injury rating 0-100
Procedure, shortened: (§1)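 Seeds planted in loam-sand blend; preemergence directed soil spray and postemergence spray at 2–10 cm, one- to two-leaf stage, compounds formulated in non-phytotoxic solvent with surfactant. After about 10 days in greenhouse, injury rated visually against untreated controls, 0 (no effect) to 100 (complete control).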

corn (Zea mays) = test: as above
Procedure, shortened: as §1

[2] = test system: giant foxtail (Setaria faberii); test: as above
Procedure, shortened: as §1

[3] = test system: large (Lg) crabgrass (Digitaria sanguinalis); test: as above
Procedure, shortened: as §1

[4] = test system: morningglory (Ipomoea spp.); test: as above
Procedure, shortened: as §1

[5] = test system: pigweed (Amaranthus retroflexus); test: as above
Procedure, shortened: as §1

[6] = test system: velvetleaf (Abutilon theophrasti); test: as above
Procedure, shortened: as §1

[7] = test system: wheat (Triticum aestivum); test: as above
Procedure, shortened: as §1

[8] = test system: Italian ryegrass (Lolium multiflorum); test: Test C pre-/postemergence greenhouse test, plant response rating 0-100; settings: Postemergence; for Plant response rating, Ryegrass, Italian: scale 0 to 100
Procedure, shortened: (§2)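 Plants were treated either at seeding (soil of loam and sand) or as 2–18 cm seedlings in a sphagnum peat mix, using test chemicals in a surfactant-containing non-phytotoxic solvent. Visual assessment relative to controls followed 13–15 days later.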

[9] = test system: galium (catchweed bedstraw, Galium aparine); test: as above; settings: Postemergence; for Plant response rating, Galium: scale 0 to 100
Procedure, shortened: as §2

[10] = test system: morningglory (Ipomoea coccinea); test: as above; settings: Postemergence; for Plant response rating, Morningglory: scale 0 to 100
Procedure, shortened: as §2

[11] = test system: ragweed (common ragweed, Ambrosia elatior); test: as above; settings: Postemergence; for Plant response rating, Ragweed: scale 0 to 100
Procedure, shortened: as §2

[12] = test system: velvetleaf (Abutilon theophrasti); test: as above; settings: Postemergence; for Plant response rating, Velvetleaf: scale 0 to 100
Procedure, shortened: as §2

Fc1ccc(NN=C(c2ccccc2)c2c[nH]nc2-c2cc(Cl)cc(Cl)c2)cc1 [Compound 35]
65: Plant response rating (0 to 100), Velvetleaf ([12]; 125 g ai/ha)
50: Plant response rating, Ragweed ([11]; 250 g ai/ha)
60: Plant response rating (0 to 100), Velvetleaf ([12]; 62 g ai/ha)
55: Plant response rating, Ragweed ([11]; 500 g ai/ha)
90: Plant response rating (0 to 100 scale), Pigweed ([5]; Postemergence, 1000 g ai/ha) | Plant response rating (0 to 100 scale), Velvetleaf ([6]; Postemergence, 1000 g ai/ha)
0: Plant response rating (0 to 100 scale), Barnyardgrass ([1]; Postemergence, 1000 g ai/ha) | Plant response rating (0 to 100 scale), Barnyardgrass ([1]; Preemergence, 1000 g ai/ha) | Plant response rating (0 to 100 scale), Corn (corn (Zea mays); Postemergence, 1000 g ai/ha) | Plant response rating (0 to 100 scale), Corn (corn (Zea mays); Preemergence, 1000 g ai/ha) | Plant response rating (0 to 100 scale), Foxtail, Giant ([2]; Postemergence, 1000 g ai/ha) | Plant response rating (0 to 100 scale), Foxtail, Giant ([2]; Preemergence, 1000 g ai/ha) | Plant response rating (0 to 100 scale), Crabgrass, Large ([3]; Postemergence, 1000 g ai/ha) | Plant response rating (0 to 100 scale), Crabgrass, Large ([3]; Preemergence, 1000 g ai/ha) | Plant response rating (0 to 100 scale), Morningglory ([4]; Postemergence, 1000 g ai/ha) | Plant response rating (0 to 100 scale), Morningglory ([4]; Preemergence, 1000 g ai/ha) | Plant response rating (0 to 100 scale), Wheat ([7]; Postemergence, 1000 g ai/ha) | Plant response rating (0 to 100 scale), Wheat ([7]; Preemergence, 1000 g ai/ha) | Plant response rating (0 to 100), Ryegrass, Italian ([8]; 62 g ai/ha) | Plant response rating (0 to 100), Ryegrass, Italian ([8]; 125 g ai/ha) | Plant response rating, Ryegrass, Italian ([8]; 250 g ai/ha) | Plant response rating, Ryegrass, Italian ([8]; 500 g ai/ha) | Plant response rating (0 to 100), Galium ([9]; 62 g ai/ha) | Plant response rating (0 to 100), Galium ([9]; 125 g ai/ha) | Plant response rating, Galium ([9]; 250 g ai/ha) | Plant response rating (0 to 100), Morningglory ([10]; 62 g ai/ha) | Plant response rating (0 to 100), Morningglory ([10]; 125 g ai/ha)
15: Plant response rating (0 to 100), Ragweed ([11]; 62 g ai/ha)
70: Plant response rating, Velvetleaf ([12]; 250 g ai/ha) | Plant response rating, Velvetleaf ([12]; 500 g ai/ha)
100: Plant response rating (0 to 100 scale), Pigweed ([5]; Preemergence, 1000 g ai/ha) | Plant response rating (0 to 100 scale), Velvetleaf ([6]; Preemergence, 1000 g ai/ha)
5: Plant response rating, Galium ([9]; 500 g ai/ha) | Plant response rating, Morningglory ([10]; 250 g ai/ha) | Plant response rating, Morningglory ([10]; 500 g ai/ha)
40: Plant response rating (0 to 100), Ragweed ([11]; 125 g ai/ha)

CCn1cc(C(=NN2CCCC2)c2ccccc2)c(-c2cc(Cl)cc(Cl)c2)n1 [Compound 37]
90: Plant response rating (0 to 100 scale), Pigweed ([5]; Preemergence, 500 g ai/ha)
80: Plant response rating (0 to 100 scale), Pigweed ([5]; Postemergence, 125 g ai/ha) | Plant response rating (0 to 100 scale), Velvetleaf ([6]; Postemergence, 125 g ai/ha) | Plant response rating (0 to 100), Velvetleaf ([12]; 125 g ai/ha)
0: Plant response rating (0 to 100 scale), Barnyardgrass ([1]; Postemergence, 125 g ai/ha) | Plant response rating (0 to 100 scale), Barnyardgrass ([1]; Postemergence, 500 g ai/ha) | Barnyardgrass plant response rating (0 = no effect, 100 = complete control) ([1]; Preemergence, 125 g ai/ha) | Plant response rating (0 to 100 scale), Barnyardgrass ([1]; Preemergence, 500 g ai/ha) | Plant response rating (0 to 100 scale), Corn (corn (Zea mays); Postemergence, 125 g ai/ha) | Plant response rating (0 to 100 scale), Corn (corn (Zea mays); Postemergence, 500 g ai/ha) | Corn plant response rating (0 = no effect, 100 = complete control) (corn (Zea mays); Preemergence, 125 g ai/ha) | Plant response rating (0 to 100 scale), Corn (corn (Zea mays); Preemergence, 500 g ai/ha) | Plant response rating (0 to 100 scale), Foxtail, Giant ([2]; Postemergence, 125 g ai/ha) | Plant response rating (0 to 100 scale), Foxtail, Giant ([2]; Postemergence, 500 g ai/ha) | Foxtail, Giant plant response rating (0 = no effect, 100 = complete control) ([2]; Preemergence, 125 g ai/ha) | Plant response rating (0 to 100 scale), Foxtail, Giant ([2]; Preemergence, 500 g ai/ha) | Plant response rating (0 to 100 scale), Crabgrass, Large ([3]; Postemergence, 125 g ai/ha) | Plant response rating (0 to 100 scale), Crabgrass, Large ([3]; Postemergence, 500 g ai/ha) | Crabgrass, Large plant response rating (0 = no effect, 100 = complete control) ([3]; Preemergence, 125 g ai/ha) | Plant response rating (0 to 100 scale), Crabgrass, Large ([3]; Preemergence, 500 g ai/ha) | Plant response rating (0 to 100 scale), Morningglory ([4]; Postemergence, 125 g ai/ha) | Plant response rating (0 to 100 scale), Morningglory ([4]; Postemergence, 500 g ai/ha) | Morningglory plant response rating (0 = no effect, 100 = complete control) ([4]; Preemergence, 125 g ai/ha) | Plant response rating (0 to 100 scale), Morningglory ([4]; Preemergence, 500 g ai/ha) | Velvetleaf plant response rating (0 = no effect, 100 = complete control) ([6]; Preemergence, 125 g ai/ha) | Plant response rating (0 to 100 scale), Wheat ([7]; Postemergence, 125 g ai/ha) | Plant response rating (0 to 100 scale), Wheat ([7]; Postemergence, 500 g ai/ha) | Wheat plant response rating (0 = no effect, 100 = complete control) ([7]; Preemergence, 125 g ai/ha) | Plant response rating (0 to 100 scale), Wheat ([7]; Preemergence, 500 g ai/ha) | Plant response rating (0 to 100), Ryegrass, Italian ([8]; 62 g ai/ha) | Plant response rating (0 to 100), Ryegrass, Italian ([8]; 125 g ai/ha) | Plant response rating, Ryegrass, Italian ([8]; 250 g ai/ha) | Plant response rating (0 to 100), Galium ([9]; 31 g ai/ha) | Plant response rating (0 to 100), Galium ([9]; 62 g ai/ha) | Plant response rating (0 to 100), Galium ([9]; 125 g ai/ha) | Plant response rating, Galium ([9]; 250 g ai/ha) | Plant response rating (0 to 100), Morningglory ([10]; 62 g ai/ha) | Plant response rating (0 to 100), Morningglory ([10]; 125 g ai/ha) | Plant response rating, Morningglory ([10]; 250 g ai/ha)
40: Pigweed plant response rating (0 = no effect, 100 = complete control) ([5]; Preemergence, 125 g ai/ha) | Plant response rating (0 to 100 scale), Velvetleaf ([6]; Preemergence, 500 g ai/ha)
20: Plant response rating, Ragweed ([11]; 250 g ai/ha)
100: Plant response rating (0 to 100 scale), Pigweed ([5]; Postemergence, 500 g ai/ha) | Plant response rating (0 to 100 scale), Velvetleaf ([6]; Postemergence, 500 g ai/ha)
98: Plant response rating, Velvetleaf ([12]; 250 g ai/ha)
75: Plant response rating (0 to 100), Velvetleaf ([12]; 62 g ai/ha)
5: Plant response rating (0 to 100), Ragweed ([11]; 62 g ai/ha) | Plant response rating (0 to 100), Ragweed ([11]; 125 g ai/ha)

CCn1cc(C(=O)c2ccccc2)c(-c2cc(Br)cc(Br)c2)n1 [Compound 38]
80: Plant response rating (0 to 100 scale), Velvetleaf ([6]; Preemergence, 1000 g ai/ha)
10: Plant response rating (0 to 100), Ragweed ([11]; 62 g ai/ha)
35: Plant response rating, Ragweed ([11]; 250 g ai/ha)
100: Plant response rating (0 to 100 scale), Pigweed ([5]; Postemergence, 1000 g ai/ha)
20: Plant response rating (0 to 100), Ragweed ([11]; 125 g ai/ha)
0: Plant response rating (0 to 100 scale), Barnyardgrass ([1]; Postemergence, 1000 g ai/ha) | Plant response rating (0 to 100 scale), Barnyardgrass ([1]; Preemergence, 1000 g ai/ha) | Plant response rating (0 to 100 scale), Corn (corn (Zea mays); Postemergence, 1000 g ai/ha) | Plant response rating (0 to 100 scale), Corn (corn (Zea mays); Preemergence, 1000 g ai/ha) | Plant response rating (0 to 100 scale), Foxtail, Giant ([2]; Postemergence, 1000 g ai/ha) | Plant response rating (0 to 100 scale), Foxtail, Giant ([2]; Preemergence, 1000 g ai/ha) | Plant response rating (0 to 100 scale), Crabgrass, Large ([3]; Postemergence, 1000 g ai/ha) | Plant response rating (0 to 100 scale), Crabgrass, Large ([3]; Preemergence, 1000 g ai/ha) | Plant response rating (0 to 100 scale), Morningglory ([4]; Preemergence, 1000 g ai/ha) | Plant response rating (0 to 100 scale), Wheat ([7]; Postemergence, 1000 g ai/ha) | Plant response rating (0 to 100 scale), Wheat ([7]; Preemergence, 1000 g ai/ha) | Plant response rating (0 to 100), Ryegrass, Italian ([8]; 62 g ai/ha) | Plant response rating (0 to 100), Ryegrass, Italian ([8]; 125 g ai/ha) | Plant response rating, Ryegrass, Italian ([8]; 250 g ai/ha) | Plant response rating (0 to 100), Galium ([9]; 31 g ai/ha) | Plant response rating (0 to 100), Galium ([9]; 62 g ai/ha) | Plant response rating (0 to 100), Galium ([9]; 125 g ai/ha) | Plant response rating (0 to 100), Morningglory ([10]; 62 g ai/ha)
5: Plant response rating, Galium ([9]; 250 g ai/ha) | Plant response rating (0 to 100), Morningglory ([10]; 125 g ai/ha) | Plant response rating, Morningglory ([10]; 250 g ai/ha)
75: Plant response rating (0 to 100), Velvetleaf ([12]; 62 g ai/ha)
90: Plant response rating (0 to 100 scale), Pigweed ([5]; Preemergence, 1000 g ai/ha) | Plant response rating (0 to 100 scale), Velvetleaf ([6]; Postemergence, 1000 g ai/ha) | Plant response rating (0 to 100), Velvetleaf ([12]; 125 g ai/ha)
